Measured values reported in patent publication US20210186970A1, “SELECTIVE CALCIUM CHANNEL ANTAGONISTS” (Northwestern University, priority 2011, published 2021).
Where two headings read alike, the source gives them in different places.

Key:
[1] = target: T1, Cav1.3 L-type Ca channels (Rattus norvegicus, UniProt P27732); test: FLIPR Fluo-8 calcium assay, Cav1.3 channel inhibition in HEK293 cells; format: cell-based
T1 construct: expressed in transfected cells; host or cells: HEK293

[2] = target: Cav1.2 L-type Ca channels (Oryctolagus cuniculus, UniProt P15381); test: FLIPR Fluo-8 calcium assay, Cav1.2 channel inhibition in HEK293 cells
[3] = IC50 (μM) CaV1.3, first library, FLIPR, HEK293, value (±SD)
[4] = first library, ratio of IC50 Cav1.2 to Cav1.3
[5] = IC50 (μM) CaV1.2, first library, FLIPR, HEK293, value (±SD)
[6] = IC50 (μM) Cav1.3, second library, FLIPR, HEK293, value (±SD)
[7] = second library, ratio of IC50 Cav1.2 to Cav1.3
[8] = IC50 (μM) Cav1.2, second library, FLIPR, HEK293, value (±SD)
[9] = IC50 (μM) Cav1.3, third library, FLIPR, HEK293, value (±SD)
[10] = third library, ratio of IC50 Cav1.2 to Cav1.3
[11] = IC50 (μM) Cav1.2, third library, FLIPR, HEK293, value (±SD)
[12] = first library, FLIPR, HEK293, value (±SD), read-out: IC50 (μM) CaV1.3

T1 sequence (P27732 whole entry): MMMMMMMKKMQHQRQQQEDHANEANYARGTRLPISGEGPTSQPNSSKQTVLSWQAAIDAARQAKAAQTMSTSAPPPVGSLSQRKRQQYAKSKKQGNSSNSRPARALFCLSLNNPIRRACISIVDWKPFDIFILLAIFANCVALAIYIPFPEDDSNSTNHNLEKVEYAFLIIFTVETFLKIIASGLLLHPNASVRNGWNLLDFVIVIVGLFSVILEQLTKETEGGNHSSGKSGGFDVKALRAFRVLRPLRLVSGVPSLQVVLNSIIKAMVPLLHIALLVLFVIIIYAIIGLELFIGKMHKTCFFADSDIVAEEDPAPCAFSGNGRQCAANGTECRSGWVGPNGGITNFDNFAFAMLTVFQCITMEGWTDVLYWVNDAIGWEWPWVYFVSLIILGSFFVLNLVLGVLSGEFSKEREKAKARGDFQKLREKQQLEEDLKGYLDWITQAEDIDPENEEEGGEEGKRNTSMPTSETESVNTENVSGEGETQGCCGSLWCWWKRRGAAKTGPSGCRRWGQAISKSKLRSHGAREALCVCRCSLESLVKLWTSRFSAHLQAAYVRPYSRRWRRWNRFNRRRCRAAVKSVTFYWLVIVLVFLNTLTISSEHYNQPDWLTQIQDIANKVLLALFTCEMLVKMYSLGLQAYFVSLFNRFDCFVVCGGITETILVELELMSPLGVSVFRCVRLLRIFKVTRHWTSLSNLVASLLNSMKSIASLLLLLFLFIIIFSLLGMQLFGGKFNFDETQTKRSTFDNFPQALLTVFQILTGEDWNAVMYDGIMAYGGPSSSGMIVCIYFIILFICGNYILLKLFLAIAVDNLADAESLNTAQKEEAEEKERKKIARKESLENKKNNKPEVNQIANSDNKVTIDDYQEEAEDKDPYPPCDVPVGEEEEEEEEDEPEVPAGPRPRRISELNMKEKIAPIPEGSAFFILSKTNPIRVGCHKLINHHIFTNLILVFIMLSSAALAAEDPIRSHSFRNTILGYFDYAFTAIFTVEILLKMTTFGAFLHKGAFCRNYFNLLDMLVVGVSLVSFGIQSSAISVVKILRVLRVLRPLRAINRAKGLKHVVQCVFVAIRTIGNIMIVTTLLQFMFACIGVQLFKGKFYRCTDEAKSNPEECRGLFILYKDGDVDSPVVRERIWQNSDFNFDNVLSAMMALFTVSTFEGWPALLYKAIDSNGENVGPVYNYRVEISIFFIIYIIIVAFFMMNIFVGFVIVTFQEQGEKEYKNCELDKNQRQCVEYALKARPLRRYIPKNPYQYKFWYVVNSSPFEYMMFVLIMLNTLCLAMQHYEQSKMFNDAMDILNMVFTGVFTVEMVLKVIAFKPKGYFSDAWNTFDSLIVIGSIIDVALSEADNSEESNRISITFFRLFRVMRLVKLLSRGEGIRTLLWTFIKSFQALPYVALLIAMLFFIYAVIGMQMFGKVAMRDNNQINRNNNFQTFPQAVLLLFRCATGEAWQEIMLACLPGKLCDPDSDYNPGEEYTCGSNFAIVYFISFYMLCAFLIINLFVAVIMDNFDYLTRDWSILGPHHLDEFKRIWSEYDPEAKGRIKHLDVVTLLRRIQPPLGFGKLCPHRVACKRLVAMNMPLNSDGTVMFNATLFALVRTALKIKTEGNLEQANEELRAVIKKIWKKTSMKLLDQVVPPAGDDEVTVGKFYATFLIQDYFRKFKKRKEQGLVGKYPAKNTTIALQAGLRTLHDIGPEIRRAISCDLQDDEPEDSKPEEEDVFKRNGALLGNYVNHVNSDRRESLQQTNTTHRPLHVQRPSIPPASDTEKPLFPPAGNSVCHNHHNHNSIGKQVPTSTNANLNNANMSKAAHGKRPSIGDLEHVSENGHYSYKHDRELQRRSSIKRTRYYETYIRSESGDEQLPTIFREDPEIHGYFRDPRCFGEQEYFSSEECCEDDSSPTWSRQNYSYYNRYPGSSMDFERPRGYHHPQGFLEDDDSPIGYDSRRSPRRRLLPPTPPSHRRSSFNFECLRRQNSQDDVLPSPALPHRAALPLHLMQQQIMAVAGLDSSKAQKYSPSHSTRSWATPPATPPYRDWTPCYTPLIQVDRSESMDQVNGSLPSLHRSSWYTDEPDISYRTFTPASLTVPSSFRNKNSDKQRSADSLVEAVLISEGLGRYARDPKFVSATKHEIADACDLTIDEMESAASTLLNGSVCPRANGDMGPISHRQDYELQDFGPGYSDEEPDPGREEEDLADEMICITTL
T1 sequence (P54284 whole entry partner): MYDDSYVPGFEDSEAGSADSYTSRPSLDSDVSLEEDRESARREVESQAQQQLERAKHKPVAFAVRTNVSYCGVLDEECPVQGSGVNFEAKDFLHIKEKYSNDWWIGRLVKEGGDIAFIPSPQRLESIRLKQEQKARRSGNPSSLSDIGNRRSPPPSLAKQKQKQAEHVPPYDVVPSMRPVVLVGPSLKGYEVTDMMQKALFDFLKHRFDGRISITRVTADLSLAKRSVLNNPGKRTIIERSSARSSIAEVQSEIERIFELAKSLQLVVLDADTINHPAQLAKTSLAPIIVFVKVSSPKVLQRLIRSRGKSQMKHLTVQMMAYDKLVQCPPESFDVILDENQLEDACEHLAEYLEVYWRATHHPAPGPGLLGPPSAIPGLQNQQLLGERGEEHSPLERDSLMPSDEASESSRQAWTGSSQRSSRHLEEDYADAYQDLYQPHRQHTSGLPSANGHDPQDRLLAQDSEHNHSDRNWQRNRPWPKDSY
T1 sequence (P54289 25-956 partner limits assumed): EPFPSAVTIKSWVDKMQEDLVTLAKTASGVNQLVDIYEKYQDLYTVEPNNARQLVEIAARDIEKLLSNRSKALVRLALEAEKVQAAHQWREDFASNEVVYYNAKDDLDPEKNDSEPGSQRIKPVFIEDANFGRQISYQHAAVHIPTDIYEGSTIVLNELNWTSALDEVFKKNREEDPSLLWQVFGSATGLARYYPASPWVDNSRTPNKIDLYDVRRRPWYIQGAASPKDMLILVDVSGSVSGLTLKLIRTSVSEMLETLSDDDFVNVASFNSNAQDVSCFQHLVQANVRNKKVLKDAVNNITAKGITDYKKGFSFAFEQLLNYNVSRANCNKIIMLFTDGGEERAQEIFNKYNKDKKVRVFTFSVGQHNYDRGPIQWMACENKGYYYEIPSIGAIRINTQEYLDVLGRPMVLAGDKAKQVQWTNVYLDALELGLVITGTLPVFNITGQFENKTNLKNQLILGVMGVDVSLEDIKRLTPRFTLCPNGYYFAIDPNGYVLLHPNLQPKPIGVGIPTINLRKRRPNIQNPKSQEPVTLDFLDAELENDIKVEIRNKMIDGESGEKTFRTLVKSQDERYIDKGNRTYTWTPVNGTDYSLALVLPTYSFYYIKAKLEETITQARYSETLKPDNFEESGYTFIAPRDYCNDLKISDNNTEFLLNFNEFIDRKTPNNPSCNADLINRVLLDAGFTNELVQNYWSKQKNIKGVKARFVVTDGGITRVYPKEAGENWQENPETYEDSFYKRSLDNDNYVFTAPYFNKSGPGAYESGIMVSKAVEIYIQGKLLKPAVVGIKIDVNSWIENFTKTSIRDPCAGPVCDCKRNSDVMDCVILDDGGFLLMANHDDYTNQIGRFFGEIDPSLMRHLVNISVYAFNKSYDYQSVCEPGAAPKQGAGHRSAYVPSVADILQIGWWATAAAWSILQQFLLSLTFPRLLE
T1 sequence (P54289 957-1103 partner limits assumed): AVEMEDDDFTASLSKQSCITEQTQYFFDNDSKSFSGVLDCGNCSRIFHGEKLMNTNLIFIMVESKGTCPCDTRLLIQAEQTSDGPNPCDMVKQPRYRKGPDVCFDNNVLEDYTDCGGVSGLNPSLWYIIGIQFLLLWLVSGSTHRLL

SMILES	IC50 [1, 3]	Selectivity [1, 4]	IC50 [2, 5]	other results
O=C1CC(=O)N(C2Cc3ccccc3C2)C(=O)N1CCc1ccc(Cl)cc1 [Compound 31]	1.3 µM	2.2	3 µM	–
O=C1CC(=O)N(C2CCCCC2)C(=O)N1CCOc1ccccc1 [Compound 88]	–	–	–	IC50 [1, 6]: 9.5 µM; Selectivity [1, 7]: 1.2; IC50 [2, 8]: 11.8 µM
O=C1CC(=O)N(C2CCCCC2)C(=O)N1CCCc1ccccc1 [Compound 84]	–	–	–	IC50 [1, 6]: 6.3 µM; Selectivity [1, 7]: 4.9; IC50 [2, 8]: 30.5 µM
O=C1CC(=O)N(CCc2c(Cl)cccc2Cl)C(=O)N1CCc1ccc(Cl)cc1 [Compound 15]	2.7 µM	0.7	1.9 µM	–
O=C1CC(=O)N(CCc2ccc(Cl)cc2)C(=O)N1CCCCc1ccccc1 [Compound 26]	0.9 µM	0.9	0.8 µM	–
O=C1CC(=O)N(Cc2ccc([N+](=O)[O-])cc2)C(=O)N1CCCCc1ccccc1 [Compound 45]	7.7 µM	0.6	4.4 µM	–
O=C1CC(=O)N(C2C3CC4CC(C3)CC2C4)C(=O)N1CCc1ccc(Cl)cc1 (stereo not shown) [Compound 116]	–	–	–	IC50 [1, 9]: 2.5 µM; Selectivity [1, 10]: 18.3; IC50 [2, 11]: 40.4 µM
O=C1CC(=O)N(C2CC3CCC2C3)C(=O)N1CCc1ccc(Cl)cc1 (racemic) [Compound 10, N-(4-chlorophenethyl)-N′-(+)-endo-norbornyl-pyrimidine-2,4,6-(1H,3H,5H)-trione]	–	–	–	IC50 ([1]; Table 4, 12 concentration points (0.1 nM~100 μM) in duplicate, read-out: IC50 (μM) Cav1.3): 0.6 µM; IC50 ([1]; read-out: IC50 with Cav1.3): 0.6 µM; IC50 ([1]; third library, FLIPR, HEK293, value (±SD), read-out: IC50 (μM) Cav1.3): 0.6 µM; IC50 ([2]; IC50 (μM) Cav1.2, Table 4, 12 concentration points (0.1 nM~100 μM) in duplicate): 13.5 µM; IC50 [2, 11]: 13.5 µM
CC(Cc1ccccc1)N1C(=O)CC(=O)N(C2CCCC2)C1=O (racemic) [Compound 95]	–	–	–	IC50 [1, 9]: 0.7 µM; Selectivity [1, 10]: 23.0; IC50 [2, 11]: 16 µM
CCCCCCCCN1C(=O)CC(=O)N(CCc2ccc3ccccc3c2)C1=O [Compound 67]	–	4.8	8.9 µM	IC50 [1, 12]: 1.9 µM
O=C1CC(=O)N(Cc2ccc(Cl)cc2)C(=O)N1CCc1ccc2ccccc2c1 [Compound 66]	1.7 µM	–	–	IC50 [2]: 2.4 µM
COc1ccc(CN2C(=O)CC(=O)N(C3CCCCC3)C2=O)cc1 [Compound 81]	–	–	–	Selectivity [1]: 2.1; IC50 [1, 6]: 32.2 µM; IC50 [2, 8]: 67.8 µM
CC(CN1C(=O)CC(=O)N(CCCCc2ccccc2)C1=O)c1ccccc1 (stereo not shown) [Compound 44]	2.1 µM	7.7	15.8 µM	–
O=C1CC(=O)N(Cc2ccc(Cl)cc2)C(=O)N1CCc1ccc(Cl)cc1 [Compound 25]	2.1 µM	0.9	1.9 µM	–
O=C1CC(=O)N(CCc2ccc3ccccc3c2)C(=O)N1CCCc1ccccc1 [Compound 61]	1 µM	1.3	1.2 µM	–
O=C(O)c1cccc(CCN2C(=O)CC(=O)N(C3CCCCC3)C2=O)c1 [Compound 89]	–	–	–	IC50 [1, 6]: 73 µM; Selectivity [1, 7]: 0.9; IC50 [2, 8]: 64.7 µM
O=C1CC(=O)N(C2CCc3ccccc32)C(=O)N1CCCCc1ccccc1 (stereo not shown) [Compound 52]	5.3 µM	1.1	5.7 µM	–
CCC(C)N1C(=O)CC(=O)N(CCc2cccc(C(F)(F)F)c2)C1=O (stereo not shown) [Compound 108]	–	–	–	IC50 [1, 9]: 3.4 µM; Selectivity [1, 10]: 10.5; IC50 [2, 11]: 35.9 µM
O=C1CC(=O)N(c2cccc(F)c2)C(=O)N1CCc1cccc(Cl)c1 [Compound 103]	–	–	–	IC50 [1, 9]: 18.6 µM; Selectivity [1, 10]: 0.5; IC50 [2, 11]: 9.7 µM
CCC(C)N1C(=O)CC(=O)N(CCc2cccc(Cl)c2)C1=O (stereo not shown) [Compound 107]	–	–	–	IC50 [1, 9]: 1.9 µM; Selectivity [1, 10]: 23.6; IC50 [2]: 45.4 µM
O=C1CC(=O)N(CCc2cccc(Cl)c2)C(=O)N1CCc1ccc(Cl)cc1 [Compound 12]	1.9 µM	2.3	4.4 µM	–
O=C1CC(=O)N(Cc2ccc(Cl)cc2)C(=O)N1CCCCc1ccccc1 [Compound 48]	2.1 µM	3.7	7.7 µM	–

SMILES	IC50 [1, 3]	Selectivity [1, 4]	IC50 [2, 5]	other results
O=C1CC(=O)N(Cc2cccc([N+](=O)[O-])c2)C(=O)N1CCCc1ccccc1 [Compound 57]	16.5 µM	0.8	13 µM	–
O=C1CC(=O)N(CCc2ccc(Cl)cc2)C(=O)N1CCc1ccc(F)cc1 [Compound 18]	1.1 µM	3.1	3.3 µM	–
O=C1CC(=O)N(CCc2cccc(C(F)(F)F)c2)C(=O)N1CCCCc1ccccc1 [Compound 43]	0.5 µM	2.3	1.1 µM	–
O=C1CC(=O)N(C2Cc3ccccc3C2)C(=O)N1CCCCc1ccccc1 [Compound 51]	–	1.5	4.9 µM	IC50 [1, 12]: 3.3 µM
O=C1CC(=O)N(CCc2ccc(Cl)cc2Cl)C(=O)N1CCc1ccc(Cl)cc1 [Compound 13]	1.8 µM	1.5	2.8 µM	–
O=C1CC(=O)N(CCc2ccc3ccccc3c2)C(=O)N1CCCCc1ccccc1 [Compound 53]	1.9 µM	1.3	2.5 µM	–
O=C1CC(=O)N(CCc2ccc(Cl)cc2)C(=O)N1CCc1ccc(Cl)cc1 [Compound 11]	1.8 µM	1.2	2.1 µM	–
O=C1CC(=O)N(C2CCc3ccccc32)C(=O)N1C1CCCCC1 (stereo not shown) [Compound 85]	–	–	–	IC50 [1, 6]: 16.4 µM; Selectivity [1, 7]: 1.2; IC50 [2, 8]: 19.2 µM
O=C1CC(=O)N(CCc2ccc([N+](=O)[O-])cc2)C(=O)N1CCc1ccc(Cl)cc1 [Compound 23]	–	0.8	–	IC50 [1, 12]: 3.4 µM; IC50 [2]: 2.7 µM
O=C1CC(=O)N(Cc2cccc([N+](=O)[O-])c2)C(=O)N1CCc1ccc2ccccc2c1 [Compound 65]	4.8 µM	1.0	5 µM	–
O=C1CC(=O)N(CCc2ccc([N+](=O)[O-])cc2)C(=O)N1CCCCc1ccccc1 [Compound 46]	3.5 µM	1.2	4.1 µM	–
O=C1CC(=O)N(CCc2ccc3ccccc3c2)C(=O)N1CCc1ccc2ccccc2c1 [Compound 62]	2.9 µM	0.6	1.8 µM	–
Cc1cccc(CCN2C(=O)CC(=O)N(C3CCCC3)C2=O)c1 [Compound 97]	–	–	–	IC50 [1, 9]: 1.1 µM; Selectivity [1, 10]: 49.1; IC50 [2, 11]: 52.1 µM
O=C1CC(=O)N(C2CCCc3ccccc32)C(=O)N1CCc1ccc(Cl)cc1 (stereo not shown) [Compound 30]	5.6 µM	2.3	12.8 µM	–
O=C1CC(=O)N(Cc2ccc(Cl)cc2)C(=O)N1CCCc1ccccc1 [Compound 59]	21.9 µM	1.2	26 µM	–
O=C1CC(=O)N(CCc2ccc(F)cc2)C(=O)N1CCCc1ccccc1 [Compound 55]	–	1.7	2.2 µM	IC50 [1, 12]: 1.3 µM
O=C1CC(=O)N(C2CCCc3ccccc32)C(=O)N1CCCCc1ccccc1 (stereo not shown) [Compound 50]	36.5 µM	0.9	34.1 µM	–
CC(C)(C)N1C(=O)CC(=O)N(CCc2cccc(Cl)c2)C1=O [Compound 105]	–	–	–	IC50 [1, 9]: 10.5 µM; Selectivity [1, 10]: 0.7; IC50 [2]: 7.2 µM
CN1C(=O)CC(=O)N(Cc2cccc([N+](=O)[O-])c2)C1=O [Compound 69]	–	–	–	IC50 [2]: 167 µM
COC(=O)CN1C(=O)CC(=O)N(CCc2ccc(Cl)cc2)C1=O [Compound 34]	108 µM	–	–	–
O=C1CC(=O)N(CCc2cccc([N+](=O)[O-])c2)C(=O)N1CCc1cccc([N+](=O)[O-])c1 [Compound 70]	–	–	–	IC50 [2]: 173 µM
